Laboratory results published in paper PMC5224920, “Assessing the mechanism and therapeutic potential of modulators of the human Mediator complex-associated protein kinases” (eLife, 2016).

Key:
protein kinases = assay: Kinase selectivity panel at 1 µM; type: biochemical; conditions: 1µM test compound
[1] = system: p-STAT1^SER727 in HCT116 tumor xenografts; assay: p-STAT1 SER727 level in HCT116 xenografts (pharmacodynamics); type: in vivo, human; conditions: single doses
plasma cytokines (IL-12) = assay: Rat plasma Th1/Th2 cytokine measurement; type: in vivo; conditions: Wistar rats, 5 – 20 mg/kg po qd; p<0.005
Protocol: Lithium-heparin-plasma (120 µL) was taken from each non-fasted animal on day 1 pre-dose and on days 3 and 14 pre-dose and also 2 hr after the last treatment. The rat Th1/Th2 multiPlex bead immunoassay panel (Invitrogen) was used to generate calibration curves and to measure cytokine (IL-1α, IL-1β, IL-2, IL-4, IL-6, IL-10, IL-12, IFNγ, gmCSF and TNFα) levels (Luminex, Austin, Texas, USA).

LS513 = assay: 14 d colony growth assay, LS513; type: cell-based, human; conditions: 350 nM, mean (range), n = 2
DLD1 = assay: 14 d colony growth assay, DLD1; type: cell-based, human; conditions: 350 nM, mean (range), n = 2
HT29 = assay: 14 d colony growth assay, HT29; type: cell-based, human; conditions: 350 nM, mean (range), n = 2
SW948 = assay: 14 d colony growth assay, SW948; type: cell-based, human; conditions: 350 nM, mean (range), n = 2
[2] = system: p-STAT1^SER727 in LS1034 colorectal cancer xenografts; assay: p-STAT1 SER727 level in LS1034 xenografts (pharmacodynamics); type: in vivo, human; conditions: 2 hr post-treatment
GSK3α = GSK3α (Homo sapiens, UniProt P49840); assay: Off-target kinase IC50, GSK3α; type: biochemical
Chain of GSK3α (P49840 whole entry, species assumed): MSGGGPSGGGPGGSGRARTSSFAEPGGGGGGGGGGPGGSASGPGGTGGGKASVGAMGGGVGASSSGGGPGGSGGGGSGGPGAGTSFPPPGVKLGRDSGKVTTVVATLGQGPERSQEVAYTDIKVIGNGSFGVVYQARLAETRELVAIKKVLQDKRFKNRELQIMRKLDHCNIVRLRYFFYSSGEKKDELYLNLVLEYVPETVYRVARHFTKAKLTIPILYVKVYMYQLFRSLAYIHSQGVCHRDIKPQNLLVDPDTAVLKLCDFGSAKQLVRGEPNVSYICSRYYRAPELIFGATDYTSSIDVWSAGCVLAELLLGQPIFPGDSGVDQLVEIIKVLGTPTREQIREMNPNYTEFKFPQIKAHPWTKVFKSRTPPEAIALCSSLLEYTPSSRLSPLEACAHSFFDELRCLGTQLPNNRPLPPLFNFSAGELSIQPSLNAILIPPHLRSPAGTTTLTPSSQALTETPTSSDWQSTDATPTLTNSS

CDK19 = target: T1, CDK19 (Homo sapiens, UniProt Q9BWU1); assay: CDK19 reporter displacement assay; type: binding
T1 construct: purchased Proteros Biostructures GmbH (Germany), assay service
T1 sequence (Q9BWU1 whole entry): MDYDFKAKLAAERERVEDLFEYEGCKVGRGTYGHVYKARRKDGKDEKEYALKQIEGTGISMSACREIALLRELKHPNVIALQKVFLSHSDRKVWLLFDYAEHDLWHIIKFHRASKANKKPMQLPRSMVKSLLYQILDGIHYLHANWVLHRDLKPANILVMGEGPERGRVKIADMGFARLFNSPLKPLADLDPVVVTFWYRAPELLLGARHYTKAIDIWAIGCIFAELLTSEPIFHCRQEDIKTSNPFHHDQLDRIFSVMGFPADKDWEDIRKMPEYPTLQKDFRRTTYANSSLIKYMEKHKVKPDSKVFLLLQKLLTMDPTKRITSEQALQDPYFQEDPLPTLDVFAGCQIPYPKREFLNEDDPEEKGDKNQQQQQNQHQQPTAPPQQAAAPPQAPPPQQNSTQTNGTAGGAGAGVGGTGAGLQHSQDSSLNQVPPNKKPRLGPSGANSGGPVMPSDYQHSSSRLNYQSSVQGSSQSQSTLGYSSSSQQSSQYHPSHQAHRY
T1 sequence (P24863 whole entry partner): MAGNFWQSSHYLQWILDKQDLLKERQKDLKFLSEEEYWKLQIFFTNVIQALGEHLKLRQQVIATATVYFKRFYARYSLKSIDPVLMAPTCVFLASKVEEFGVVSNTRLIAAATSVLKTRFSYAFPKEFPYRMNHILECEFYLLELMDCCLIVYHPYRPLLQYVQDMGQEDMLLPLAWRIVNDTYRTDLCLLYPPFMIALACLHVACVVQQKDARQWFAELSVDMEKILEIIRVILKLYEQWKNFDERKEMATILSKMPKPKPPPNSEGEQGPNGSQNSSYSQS

CDK8 = CDK8 (Homo sapiens, UniProt P49336); assay: CDK8 binding (Lanthascreen binding competition / reporter displacement assay)
Chain of CDK8 (P49336 whole entry): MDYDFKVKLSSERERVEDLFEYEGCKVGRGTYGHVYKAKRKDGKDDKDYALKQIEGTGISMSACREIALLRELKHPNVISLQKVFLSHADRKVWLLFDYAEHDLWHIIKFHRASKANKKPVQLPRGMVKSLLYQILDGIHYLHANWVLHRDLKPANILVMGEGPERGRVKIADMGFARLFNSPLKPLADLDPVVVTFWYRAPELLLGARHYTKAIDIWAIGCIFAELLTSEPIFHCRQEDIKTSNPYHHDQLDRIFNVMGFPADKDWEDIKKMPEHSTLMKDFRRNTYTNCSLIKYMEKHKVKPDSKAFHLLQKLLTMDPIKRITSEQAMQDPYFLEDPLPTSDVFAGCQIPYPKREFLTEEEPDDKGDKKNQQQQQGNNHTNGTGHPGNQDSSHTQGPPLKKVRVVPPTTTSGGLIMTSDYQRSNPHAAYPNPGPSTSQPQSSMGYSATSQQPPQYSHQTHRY
Chain of CDK8 (P24863 whole entry partner): as the sequence (P24863 whole entry partner) above

Row | Structure (SMILES) | Off-target activities in protein kinase panel (protein kinases) | Dose required for maximal inhibition of STAT1^SER727 phosphorylation [1] [mg/kg] | Plasma IL-12 level (plasma cytokines (IL-12)) | 14 d colony growth (relative to control) (LS513) | 14 d colony growth (relative to control) (DLD1) | 14 d colony growth (relative to control) (HT29) | 14 d colony growth (relative to control) (SW948) | Decrease of p-STAT1^SER727 [2] [%] | p-STAT1^SER727 value normalised to total STAT1 levels ([2]; n = 4, mean ± s.e.m, control 1719 ± 174) | IC50 (GSK3α) [nM] | IC50 (CDK19) [nM] | IC50 (CDK8) [nM]
1 | Cn1ncc2cc(-c3cnc(N)c(Cl)c3N3CCC4(CCNC4=O)CC3)ccc21 [CMPD 3] | No off-target activities were detected | ≥ 5 | increased significantly | – | – | – | – | – | – | – | – | –
2 | Cc1n[nH]c2ncc(C(=O)N3CCC[C@H]3c3ccc(Cl)cc3)cc12 [CMPD 4] | – | – | – | 0.04 (0.01) | 0.66 (0.07) | 0.43 (0.01) | 0.13 (0.02) | 58 | 719 ± 46 | 691 | 3.8 ± 0.4 | 4.4 ± 0.3
